Laboratory results: the kinase profiling compilation of Christmann-Franck et al. (2016)

Columns and labels:
Assay in all cases: radiometric filter-binding kinase assay
[1] = biological target: EPHB1 (human) (UniProt P54762)
[2] = biological target: MAP2K1 (human) (UniProt Q02750)
[3] = biological target: NEK2 (human) (UniProt P51955)
[4] = biological target: SRC (human) (UniProt P12931)
[5] = system: RPS6KB1 (human), P23443 [T412E]
[6] = biological target: CDK2 CCNA2 (human) (UniProt P20248+P24941)
[7] = biological target: MAPK14 (human) (UniProt Q16539)
[8] = biological target: RPS6KA1 KD1 KD2 (human) (UniProt Q15418)
[9] = biological target: PIM2 (human) (UniProt Q9P1W9)
[10] = biological target: RPS6KA5 KD1 KD2 (human) (UniProt O75582)
[11] = biological target: NEK6 (human) (UniProt Q9HC98)
[12] = biological target: RPS6KA3 KD1 KD2 (human) (UniProt P51812)
[13] = biological target: FLT1 (human) (UniProt P17948)
[14] = system: PRKAA1 or PRKAA2 (rat); settings: accession and sequence are those of the human protein
[15] = biological target: MAPKAPK3 (human) (UniProt Q16644)
[16] = biological target: CHEK2 (human) (UniProt O96017)
[17] = biological target: MAPK15 (human) (UniProt Q8TD08)
[18] = system: AKT2 (human), P31751 [S474D]
[19] = biological target: EPHA4 (human) (UniProt P54764)
[20] = biological target: EPHB4 (human) (UniProt P54760)
[21] = biological target: PRKACA (human) (UniProt P17612)
[22] = biological target: MAPK3 (human) (UniProt P27361)
[23] = biological target: CSK (human) (UniProt P41240); settings: compound 0.1 µM
[24] = biological target: TTK (human) (UniProt P33981)
[25] = biological target: IKBKB (human) (UniProt O14920)
[26] = biological target: CSNK1D (human) (UniProt P48730)
[27] = biological target: IKBKE (human) (UniProt Q14164)
[28] = biological target: INSRR (human) (UniProt P14616)
[29] = biological target: MKNK2 (human) (UniProt Q9HBH9)
[30] = biological target: BTK (human) (UniProt Q06187)
[31] = biological target: PAK7 (human) (UniProt Q9P286)
[32] = biological target: MAPK1 (human) (UniProt P28482)
[33] = biological target: SYK (human) (UniProt P43405)
[34] = biological target: PLK1 (human) (UniProt P53350)
[35] = biological target: RIPK2 (human) (UniProt O43353)

Sequence of MAPK14 (human) (Q16539 whole entry, looked up): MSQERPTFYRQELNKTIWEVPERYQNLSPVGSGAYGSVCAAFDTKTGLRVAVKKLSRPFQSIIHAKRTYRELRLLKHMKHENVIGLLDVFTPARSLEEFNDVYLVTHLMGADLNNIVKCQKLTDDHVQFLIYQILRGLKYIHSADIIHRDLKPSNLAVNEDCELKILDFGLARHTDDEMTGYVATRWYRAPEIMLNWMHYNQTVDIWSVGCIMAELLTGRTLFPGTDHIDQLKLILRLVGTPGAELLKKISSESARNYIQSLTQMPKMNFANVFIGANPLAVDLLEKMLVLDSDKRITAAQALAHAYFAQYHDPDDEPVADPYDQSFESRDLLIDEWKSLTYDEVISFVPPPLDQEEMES
Sequence of NEK6 (human) (Q9HC98 whole entry, looked up): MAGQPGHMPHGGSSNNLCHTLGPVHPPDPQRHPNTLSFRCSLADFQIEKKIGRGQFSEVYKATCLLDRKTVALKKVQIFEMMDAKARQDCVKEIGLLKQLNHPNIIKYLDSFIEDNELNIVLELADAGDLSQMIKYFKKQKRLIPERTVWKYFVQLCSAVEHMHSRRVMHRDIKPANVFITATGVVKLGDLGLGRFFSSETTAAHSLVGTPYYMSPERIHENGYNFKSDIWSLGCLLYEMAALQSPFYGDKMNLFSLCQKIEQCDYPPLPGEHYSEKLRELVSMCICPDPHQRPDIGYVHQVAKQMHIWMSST
Sequence of MKNK2 (human) (Q9HBH9 whole entry, looked up): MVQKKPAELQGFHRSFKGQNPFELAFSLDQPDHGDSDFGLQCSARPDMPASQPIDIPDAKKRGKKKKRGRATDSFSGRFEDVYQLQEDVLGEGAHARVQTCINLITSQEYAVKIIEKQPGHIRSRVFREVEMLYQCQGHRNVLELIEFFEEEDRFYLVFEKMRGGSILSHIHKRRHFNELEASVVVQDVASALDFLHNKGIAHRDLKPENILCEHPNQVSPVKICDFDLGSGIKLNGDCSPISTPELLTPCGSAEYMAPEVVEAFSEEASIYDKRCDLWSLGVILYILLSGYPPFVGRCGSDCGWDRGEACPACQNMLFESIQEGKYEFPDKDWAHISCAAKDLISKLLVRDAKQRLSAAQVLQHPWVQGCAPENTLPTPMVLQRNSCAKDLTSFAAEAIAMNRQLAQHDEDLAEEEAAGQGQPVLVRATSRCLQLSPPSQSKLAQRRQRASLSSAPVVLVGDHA
Sequence of NEK2 (human) (P51955 whole entry, looked up): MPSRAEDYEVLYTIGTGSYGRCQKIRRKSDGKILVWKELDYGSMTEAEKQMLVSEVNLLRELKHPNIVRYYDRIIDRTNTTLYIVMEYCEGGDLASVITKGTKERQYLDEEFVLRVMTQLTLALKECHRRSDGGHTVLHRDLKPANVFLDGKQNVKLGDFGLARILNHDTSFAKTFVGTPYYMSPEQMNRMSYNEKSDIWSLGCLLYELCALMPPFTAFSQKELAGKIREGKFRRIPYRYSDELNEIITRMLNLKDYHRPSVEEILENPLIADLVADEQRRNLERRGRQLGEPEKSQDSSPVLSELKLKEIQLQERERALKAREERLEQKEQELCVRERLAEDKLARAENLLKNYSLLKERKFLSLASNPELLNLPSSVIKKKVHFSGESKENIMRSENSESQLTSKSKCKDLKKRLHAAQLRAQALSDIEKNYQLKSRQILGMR
Sequence of MAP2K1 (human) (Q02750 whole entry, looked up): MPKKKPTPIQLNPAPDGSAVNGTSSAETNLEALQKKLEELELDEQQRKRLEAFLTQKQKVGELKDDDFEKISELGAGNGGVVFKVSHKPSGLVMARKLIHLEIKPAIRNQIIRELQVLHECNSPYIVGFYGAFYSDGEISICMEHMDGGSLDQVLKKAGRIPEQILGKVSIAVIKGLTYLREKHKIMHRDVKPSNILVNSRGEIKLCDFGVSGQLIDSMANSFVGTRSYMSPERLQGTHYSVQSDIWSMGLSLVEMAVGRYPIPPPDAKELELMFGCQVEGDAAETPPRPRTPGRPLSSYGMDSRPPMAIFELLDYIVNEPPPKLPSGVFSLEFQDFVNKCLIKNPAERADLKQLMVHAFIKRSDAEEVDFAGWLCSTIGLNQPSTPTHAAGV
Sequence of RPS6KA3 KD1 KD2 (human) (P51812 whole entry, looked up): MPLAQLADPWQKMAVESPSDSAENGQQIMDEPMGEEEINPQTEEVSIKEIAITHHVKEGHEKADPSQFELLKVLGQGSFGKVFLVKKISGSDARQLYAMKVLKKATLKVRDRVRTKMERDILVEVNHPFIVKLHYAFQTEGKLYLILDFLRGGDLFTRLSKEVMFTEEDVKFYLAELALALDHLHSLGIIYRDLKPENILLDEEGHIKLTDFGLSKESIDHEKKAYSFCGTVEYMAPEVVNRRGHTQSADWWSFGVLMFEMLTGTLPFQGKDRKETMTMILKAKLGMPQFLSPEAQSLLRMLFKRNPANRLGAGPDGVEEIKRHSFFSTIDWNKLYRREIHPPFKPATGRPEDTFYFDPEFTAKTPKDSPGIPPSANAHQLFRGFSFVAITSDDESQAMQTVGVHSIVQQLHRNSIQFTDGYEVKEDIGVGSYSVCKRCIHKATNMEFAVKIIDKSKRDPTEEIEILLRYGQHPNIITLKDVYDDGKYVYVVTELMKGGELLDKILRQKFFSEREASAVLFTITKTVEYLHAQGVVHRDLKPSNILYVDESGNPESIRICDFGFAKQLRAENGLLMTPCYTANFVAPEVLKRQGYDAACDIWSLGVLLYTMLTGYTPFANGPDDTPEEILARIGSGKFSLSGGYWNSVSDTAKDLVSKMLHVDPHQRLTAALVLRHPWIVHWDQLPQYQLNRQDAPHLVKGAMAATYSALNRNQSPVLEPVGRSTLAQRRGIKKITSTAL
Sequence of IKBKB (human) (O14920 whole entry, looked up): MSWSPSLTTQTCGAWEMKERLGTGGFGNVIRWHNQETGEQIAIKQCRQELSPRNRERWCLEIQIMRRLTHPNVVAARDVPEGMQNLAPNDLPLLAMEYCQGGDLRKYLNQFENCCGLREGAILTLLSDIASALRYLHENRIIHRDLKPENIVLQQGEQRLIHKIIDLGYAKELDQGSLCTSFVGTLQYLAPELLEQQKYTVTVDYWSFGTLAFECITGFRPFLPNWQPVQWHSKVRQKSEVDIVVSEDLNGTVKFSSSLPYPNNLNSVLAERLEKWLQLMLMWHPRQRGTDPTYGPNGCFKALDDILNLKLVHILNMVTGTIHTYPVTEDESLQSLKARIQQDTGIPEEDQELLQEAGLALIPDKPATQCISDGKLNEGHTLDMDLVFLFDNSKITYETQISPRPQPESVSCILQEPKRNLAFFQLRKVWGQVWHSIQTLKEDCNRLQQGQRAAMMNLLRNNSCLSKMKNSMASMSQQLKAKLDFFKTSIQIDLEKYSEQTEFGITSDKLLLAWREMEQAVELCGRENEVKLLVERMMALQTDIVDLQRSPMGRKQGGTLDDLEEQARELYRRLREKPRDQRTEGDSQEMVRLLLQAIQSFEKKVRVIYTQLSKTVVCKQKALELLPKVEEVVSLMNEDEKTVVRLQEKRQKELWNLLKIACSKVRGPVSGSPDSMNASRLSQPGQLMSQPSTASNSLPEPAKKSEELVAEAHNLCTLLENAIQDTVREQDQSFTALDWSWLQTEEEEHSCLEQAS
Sequence of FLT1 (human) (P17948 whole entry, looked up): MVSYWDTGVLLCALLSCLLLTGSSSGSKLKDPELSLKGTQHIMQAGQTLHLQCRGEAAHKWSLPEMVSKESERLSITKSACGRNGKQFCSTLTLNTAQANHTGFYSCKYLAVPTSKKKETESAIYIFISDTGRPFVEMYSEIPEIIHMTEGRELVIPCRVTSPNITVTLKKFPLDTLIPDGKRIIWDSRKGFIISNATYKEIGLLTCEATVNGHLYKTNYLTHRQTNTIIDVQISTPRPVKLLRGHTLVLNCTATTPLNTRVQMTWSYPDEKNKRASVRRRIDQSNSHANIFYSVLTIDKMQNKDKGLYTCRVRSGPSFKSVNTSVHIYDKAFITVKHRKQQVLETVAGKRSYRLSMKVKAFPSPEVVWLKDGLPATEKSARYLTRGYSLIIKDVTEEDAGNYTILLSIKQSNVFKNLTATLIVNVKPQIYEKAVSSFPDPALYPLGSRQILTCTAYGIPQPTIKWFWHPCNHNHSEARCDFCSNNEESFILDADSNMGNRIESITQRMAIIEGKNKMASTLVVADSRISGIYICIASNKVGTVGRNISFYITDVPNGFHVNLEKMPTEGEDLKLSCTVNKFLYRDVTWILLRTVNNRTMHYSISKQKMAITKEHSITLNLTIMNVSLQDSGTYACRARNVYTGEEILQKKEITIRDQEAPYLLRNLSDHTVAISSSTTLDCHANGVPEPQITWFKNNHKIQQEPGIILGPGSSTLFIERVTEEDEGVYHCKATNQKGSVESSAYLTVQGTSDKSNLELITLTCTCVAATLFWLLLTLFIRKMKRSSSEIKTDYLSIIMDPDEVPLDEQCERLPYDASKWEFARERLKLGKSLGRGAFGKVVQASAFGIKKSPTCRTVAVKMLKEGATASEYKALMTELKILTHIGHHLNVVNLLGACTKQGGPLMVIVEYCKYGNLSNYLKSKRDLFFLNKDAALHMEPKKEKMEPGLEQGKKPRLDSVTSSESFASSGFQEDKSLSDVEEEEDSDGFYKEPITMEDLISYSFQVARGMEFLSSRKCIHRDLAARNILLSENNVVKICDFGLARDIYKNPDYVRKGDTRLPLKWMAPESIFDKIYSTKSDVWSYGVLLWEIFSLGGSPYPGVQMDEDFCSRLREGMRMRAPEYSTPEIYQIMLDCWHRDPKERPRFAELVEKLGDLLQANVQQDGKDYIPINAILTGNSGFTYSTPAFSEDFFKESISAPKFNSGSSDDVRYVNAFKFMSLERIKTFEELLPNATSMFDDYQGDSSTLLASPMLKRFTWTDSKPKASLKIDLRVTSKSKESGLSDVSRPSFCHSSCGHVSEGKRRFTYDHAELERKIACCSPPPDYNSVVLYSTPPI

COc1cc(O)c2c(c1)[C@H]1OC1C[C@H](O)[C@H](O)C(=O)/C=C\C[C@H](C)OC2=O (stereo not given in full)
residual activity ([1]; compound 0.01 µM): 97% | residual activity ([1]; compound 0.1 µM): 110% | residual activity ([1]; compound 1.0 µM): 84% | residual activity ([2]; compound 0.01 µM): 101% | residual activity ([2]; compound 0.1 µM): 21% | residual activity ([2]; compound 1.0 µM): 1% | residual activity ([3]; compound 0.01 µM): 103% | residual activity ([3]; compound 0.1 µM): 127% | residual activity ([3]; compound 1.0 µM): 105% | residual activity ([4]; compound 0.01 µM): 96% | residual activity ([4]; compound 0.1 µM): 91% | residual activity ([4]; compound 1.0 µM): 86% | residual activity ([5]; compound 0.01 µM): 87% | residual activity ([5]; compound 0.1 µM): 92% | residual activity ([5]; compound 1.0 µM): 106% | residual activity ([6]; compound 0.01 µM): 91% | residual activity ([6]; compound 0.1 µM): 81% | residual activity ([6]; compound 1.0 µM): 76% | residual activity ([7]; compound 0.01 µM): 108% | residual activity ([7]; compound 0.1 µM): 105% | residual activity ([7]; compound 1.0 µM): 105% | residual activity ([8]; compound 0.1 µM): 92% | residual activity ([8]; compound 1.0 µM): 85% | residual activity ([9]; compound 0.01 µM): 93% | residual activity ([9]; compound 0.1 µM): 114% | residual activity ([10]; compound 0.01 µM): 108% | residual activity ([10]; compound 0.1 µM): 104% | residual activity ([10]; compound 1.0 µM): 104% | residual activity ([11]; compound 0.01 µM): 97% | residual activity ([11]; compound 0.1 µM): 90% | residual activity ([11]; compound 1.0 µM): 98% | residual activity ([12]; compound 0.01 µM): 129% | residual activity ([12]; compound 0.1 µM): 125% | residual activity ([12]; compound 1.0 µM): 129% | residual activity ([13]; compound 0.01 µM): 65% | residual activity ([13]; compound 0.1 µM): 5% | residual activity ([13]; compound 1.0 µM): 3% | residual activity ([14]; compound 0.01 µM): 105% | residual activity ([14]; compound 0.1 µM): 105% | residual activity ([14]; compound 1.0 µM): 94% | residual activity ([15]; compound 0.01 µM): 105% | residual activity ([15]; compound 0.1 µM): 99% | residual activity ([15]; compound 1.0 µM): 99% | residual activity ([16]; compound 0.01 µM): 91% | residual activity ([16]; compound 0.1 µM): 91% | residual activity ([17]; compound 0.01 µM): 80% | residual activity ([17]; compound 0.1 µM): 27% | residual activity ([17]; compound 1.0 µM): 11% | residual activity ([18]; compound 0.01 µM): 105% | residual activity ([18]; compound 0.1 µM): 103% | residual activity ([19]; compound 0.01 µM): 109% | residual activity ([19]; compound 0.1 µM): 122% | residual activity ([19]; compound 1.0 µM): 107% | residual activity ([20]; compound 0.01 µM): 109% | residual activity ([20]; compound 0.1 µM): 116% | residual activity ([21]; compound 0.01 µM): 91% | residual activity ([21]; compound 0.1 µM): 99% | residual activity ([21]; compound 1.0 µM): 100% | residual activity ([22]; compound 0.01 µM): 111% | residual activity ([22]; compound 0.1 µM): 102% | residual activity ([22]; compound 1.0 µM): 57% | residual activity [23]: 105% | residual activity ([24]; compound 0.01 µM): 101% | residual activity ([24]; compound 0.1 µM): 95% | residual activity ([24]; compound 1.0 µM): 101% | residual activity ([25]; compound 0.01 µM): 103% | residual activity ([25]; compound 0.1 µM): 100% | residual activity ([25]; compound 1.0 µM): 112% | residual activity ([26]; compound 0.01 µM): 116% | residual activity ([26]; compound 0.1 µM): 101% | residual activity ([27]; compound 0.01 µM): 108% | residual activity ([27]; compound 0.1 µM): 105% | residual activity ([27]; compound 1.0 µM): 92% | residual activity ([28]; compound 0.01 µM): 104% | residual activity ([28]; compound 0.1 µM): 108% | residual activity ([28]; compound 1.0 µM): 113% | residual activity ([29]; compound 0.01 µM): 91% | residual activity ([29]; compound 0.1 µM): 62% | residual activity ([29]; compound 1.0 µM): 44% | residual activity ([30]; compound 0.01 µM): 105% | residual activity ([30]; compound 0.1 µM): 115% | residual activity ([30]; compound 1.0 µM): 109% | residual activity ([31]; compound 0.01 µM): 102% | residual activity ([31]; compound 0.1 µM): 115% | residual activity ([32]; compound 0.01 µM): 96% | residual activity ([32]; compound 0.1 µM): 87% | residual activity ([32]; compound 1.0 µM): 36% | residual activity ([33]; compound 0.1 µM): 108% | residual activity ([33]; compound 1.0 µM): 85% | residual activity ([34]; compound 0.01 µM): 102% | residual activity ([34]; compound 0.1 µM): 107% | residual activity ([34]; compound 1.0 µM): 114% | residual activity ([35]; compound 0.01 µM): 104% | residual activity ([35]; compound 0.1 µM): 102% | residual activity ([35]; compound 1.0 µM): 85%
